Results taken from patent US20250326753A1, “DUAL CXCR4-BTK INHIBITORS” (X4 Pharmaceuticals, Inc., priority 2022, published 2025).
Read-outs that look alike come from different tables or passages of the source.

Assays:
Type in all cases: biochemical
[1] = target: T1, EPHA6 (Homo sapiens, UniProt Q9UF33); assay: PanQinase kinase panel: EPHA6; details: read-out: INHIBITORY EFFECT @ 1 uM: EPHA6
T1 construct: purchased Reaction Biology Europe GmbH
T1 sequence (Q9UF33 23-1036): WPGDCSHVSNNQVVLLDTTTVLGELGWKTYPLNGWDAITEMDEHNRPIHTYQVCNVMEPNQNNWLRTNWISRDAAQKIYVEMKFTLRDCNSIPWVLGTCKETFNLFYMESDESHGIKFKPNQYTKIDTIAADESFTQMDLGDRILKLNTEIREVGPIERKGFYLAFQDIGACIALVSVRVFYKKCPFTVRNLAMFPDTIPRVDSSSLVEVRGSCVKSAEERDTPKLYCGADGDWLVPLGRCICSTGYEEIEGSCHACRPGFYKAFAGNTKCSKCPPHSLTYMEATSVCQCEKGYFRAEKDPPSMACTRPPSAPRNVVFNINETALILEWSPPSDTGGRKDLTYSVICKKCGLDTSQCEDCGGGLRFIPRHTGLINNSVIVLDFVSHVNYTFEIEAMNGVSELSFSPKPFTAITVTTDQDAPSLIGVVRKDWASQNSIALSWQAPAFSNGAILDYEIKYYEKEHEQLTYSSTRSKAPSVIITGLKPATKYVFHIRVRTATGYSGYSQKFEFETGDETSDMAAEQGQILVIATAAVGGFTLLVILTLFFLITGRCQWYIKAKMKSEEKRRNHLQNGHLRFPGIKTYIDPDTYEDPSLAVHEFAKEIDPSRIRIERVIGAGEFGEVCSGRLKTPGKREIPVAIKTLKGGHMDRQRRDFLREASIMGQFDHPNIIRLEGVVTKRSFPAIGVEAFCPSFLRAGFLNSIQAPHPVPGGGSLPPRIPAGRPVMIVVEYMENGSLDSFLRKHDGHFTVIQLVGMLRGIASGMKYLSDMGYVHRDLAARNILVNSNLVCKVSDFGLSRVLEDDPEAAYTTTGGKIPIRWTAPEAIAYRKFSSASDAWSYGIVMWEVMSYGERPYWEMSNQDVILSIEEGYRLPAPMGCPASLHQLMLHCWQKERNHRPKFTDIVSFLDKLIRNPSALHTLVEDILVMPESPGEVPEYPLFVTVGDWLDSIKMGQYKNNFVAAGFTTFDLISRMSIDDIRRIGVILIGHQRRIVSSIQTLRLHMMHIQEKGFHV
Experimental: (§1) Screening procedures were performed in accordance with the company's on-line protocol [accessed on-line Mar.
(§2) For each kinase, the median value of the cpm of three wells was defined as “low control” (n=3). This value reflects unspecific binding of radioactivity to the plate in the absence of a protein kinase but in the presence of the substrate. Additionally, for each kinase the median value of the cpm of three other wells was taken as the “high control,” i.e. full activity in the absence of any inhibitor (n=3). The difference between high and low control of each enzyme was taken as 100% activity.
(§3) As part of the data evaluation the low control of each kinase was subtracted from the high control value as well as from their corresponding “compound values”. The residual activity (in %) for each compound well was calculated by using the following formula: Res. Activity (%)=100×[(signal of compound−low control)/(high control−low control)].

[2] = target: T2, LYN (Homo sapiens, UniProt P07948); assay: PanQinase kinase panel: LYN; details: read-out: INHIBITORY EFFECT @ 1 uM: LYN
T2 construct: purchased Reaction Biology Europe GmbH
Experimental: as §1, §2, §3

[3] = target: T3, CSK (Homo sapiens, UniProt P41240); assay: PanQinase kinase panel: CSK; details: read-out: INHIBITORY EFFECT @ 1 uM: CSK
T3 construct: purchased Reaction Biology Europe GmbH
Experimental: as §1, §2, §3

[4] = target: T4, ABL2 (Homo sapiens, UniProt P42684); assay: PanQinase kinase panel: ABL2
T4 construct: purchased Reaction Biology Europe GmbH
Experimental: as §1, §2, §3

[5] = target: T5, PAK1 (Homo sapiens, UniProt Q13153); assay: PanQinase kinase panel: PAK1; details: read-out: INHIBITORY EFFECT @ 1 uM: PAK1
T5 construct: purchased Reaction Biology Europe GmbH
Experimental: as §1, §2, §3

[6] = target: T6, ERBB4 (Homo sapiens, UniProt Q15303); assay: PanQinase kinase panel: ERBB4; details: read-out: INHIBITORY EFFECT @ 1 uM: ERBB4
T6 construct: purchased Reaction Biology Europe GmbH
Experimental: as §1, §2
As part of the data evaluation the low control of each kinase was subtracted from the high control value as well as from their corresponding “compound values”.

[7] = target: T7, TXK (Homo sapiens, UniProt P42681); assay: PanQinase kinase panel: TXK; details: read-out: INHIBITORY EFFECT @ 1 uM: TXK
T7 construct: purchased Reaction Biology Europe GmbH
T7 sequence (P42681 1-527): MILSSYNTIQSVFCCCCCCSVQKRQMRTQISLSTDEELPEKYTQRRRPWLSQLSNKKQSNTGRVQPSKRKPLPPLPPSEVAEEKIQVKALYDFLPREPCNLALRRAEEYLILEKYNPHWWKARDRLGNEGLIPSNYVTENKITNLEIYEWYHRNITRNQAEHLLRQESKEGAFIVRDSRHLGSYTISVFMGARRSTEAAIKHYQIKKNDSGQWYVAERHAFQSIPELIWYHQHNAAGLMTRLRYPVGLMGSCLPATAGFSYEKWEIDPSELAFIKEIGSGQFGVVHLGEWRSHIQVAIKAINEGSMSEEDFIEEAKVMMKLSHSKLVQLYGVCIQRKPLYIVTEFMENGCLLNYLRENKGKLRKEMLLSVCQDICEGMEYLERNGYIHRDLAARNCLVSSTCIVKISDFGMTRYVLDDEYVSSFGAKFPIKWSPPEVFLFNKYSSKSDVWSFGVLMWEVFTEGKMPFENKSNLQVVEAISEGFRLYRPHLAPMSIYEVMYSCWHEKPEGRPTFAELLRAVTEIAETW
Experimental: as §1, §2, §3

[8] = target: T8, SIK2 (Homo sapiens, UniProt Q9H0K1); assay: PanQinase kinase panel: SIK2
T8 construct: purchased Reaction Biology Europe GmbH
Experimental: as §1, §2, §3

[9] = read-out: INHIBITORY EFFECT @ 1 uM: ABL2
[10] = read-out: INHIBITORY EFFECT @ 1 uM: SIK2

T3 sequence (P41240 whole entry): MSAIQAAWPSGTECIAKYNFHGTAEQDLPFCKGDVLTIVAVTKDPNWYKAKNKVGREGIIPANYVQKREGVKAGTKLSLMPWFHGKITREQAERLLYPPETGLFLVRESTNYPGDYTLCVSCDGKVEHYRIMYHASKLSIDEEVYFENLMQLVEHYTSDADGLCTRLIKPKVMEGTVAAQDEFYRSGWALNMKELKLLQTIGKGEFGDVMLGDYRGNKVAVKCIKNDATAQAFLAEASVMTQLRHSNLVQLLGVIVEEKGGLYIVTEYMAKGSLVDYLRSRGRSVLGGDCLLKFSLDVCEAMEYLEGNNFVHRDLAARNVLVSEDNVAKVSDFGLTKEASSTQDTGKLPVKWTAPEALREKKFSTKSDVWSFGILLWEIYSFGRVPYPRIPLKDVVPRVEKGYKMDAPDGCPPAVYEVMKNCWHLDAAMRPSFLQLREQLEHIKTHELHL
T4 sequence (P42684 whole entry): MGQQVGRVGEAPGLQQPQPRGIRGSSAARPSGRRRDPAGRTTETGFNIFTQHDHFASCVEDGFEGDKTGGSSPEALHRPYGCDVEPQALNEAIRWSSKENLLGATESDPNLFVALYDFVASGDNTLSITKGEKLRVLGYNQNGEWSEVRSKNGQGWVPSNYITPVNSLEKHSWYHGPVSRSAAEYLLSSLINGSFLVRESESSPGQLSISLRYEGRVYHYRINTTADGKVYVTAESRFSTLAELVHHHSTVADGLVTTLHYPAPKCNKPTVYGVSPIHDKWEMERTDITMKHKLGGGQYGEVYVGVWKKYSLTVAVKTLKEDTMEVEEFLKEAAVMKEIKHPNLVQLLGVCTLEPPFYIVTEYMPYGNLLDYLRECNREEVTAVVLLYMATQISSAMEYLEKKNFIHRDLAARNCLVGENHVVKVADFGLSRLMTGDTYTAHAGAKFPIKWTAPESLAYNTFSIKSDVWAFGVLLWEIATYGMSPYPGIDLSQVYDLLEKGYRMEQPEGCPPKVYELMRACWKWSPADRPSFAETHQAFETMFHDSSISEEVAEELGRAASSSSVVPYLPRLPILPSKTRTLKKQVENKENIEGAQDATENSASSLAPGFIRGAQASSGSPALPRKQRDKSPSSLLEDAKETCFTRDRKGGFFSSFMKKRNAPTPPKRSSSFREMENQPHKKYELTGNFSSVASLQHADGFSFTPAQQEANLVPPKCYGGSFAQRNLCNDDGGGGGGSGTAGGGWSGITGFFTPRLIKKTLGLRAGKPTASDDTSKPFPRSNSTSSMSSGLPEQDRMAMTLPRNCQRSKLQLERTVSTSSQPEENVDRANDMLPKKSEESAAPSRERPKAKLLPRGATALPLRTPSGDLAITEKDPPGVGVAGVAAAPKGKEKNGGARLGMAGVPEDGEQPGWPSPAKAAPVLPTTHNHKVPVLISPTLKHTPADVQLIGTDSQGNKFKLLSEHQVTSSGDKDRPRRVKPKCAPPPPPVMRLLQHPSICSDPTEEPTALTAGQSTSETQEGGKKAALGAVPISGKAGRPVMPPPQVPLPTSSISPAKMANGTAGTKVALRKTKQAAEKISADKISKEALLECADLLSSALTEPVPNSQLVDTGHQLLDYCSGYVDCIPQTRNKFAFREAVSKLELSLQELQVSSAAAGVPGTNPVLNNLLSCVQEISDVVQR
T8 sequence (Q9H0K1 whole entry): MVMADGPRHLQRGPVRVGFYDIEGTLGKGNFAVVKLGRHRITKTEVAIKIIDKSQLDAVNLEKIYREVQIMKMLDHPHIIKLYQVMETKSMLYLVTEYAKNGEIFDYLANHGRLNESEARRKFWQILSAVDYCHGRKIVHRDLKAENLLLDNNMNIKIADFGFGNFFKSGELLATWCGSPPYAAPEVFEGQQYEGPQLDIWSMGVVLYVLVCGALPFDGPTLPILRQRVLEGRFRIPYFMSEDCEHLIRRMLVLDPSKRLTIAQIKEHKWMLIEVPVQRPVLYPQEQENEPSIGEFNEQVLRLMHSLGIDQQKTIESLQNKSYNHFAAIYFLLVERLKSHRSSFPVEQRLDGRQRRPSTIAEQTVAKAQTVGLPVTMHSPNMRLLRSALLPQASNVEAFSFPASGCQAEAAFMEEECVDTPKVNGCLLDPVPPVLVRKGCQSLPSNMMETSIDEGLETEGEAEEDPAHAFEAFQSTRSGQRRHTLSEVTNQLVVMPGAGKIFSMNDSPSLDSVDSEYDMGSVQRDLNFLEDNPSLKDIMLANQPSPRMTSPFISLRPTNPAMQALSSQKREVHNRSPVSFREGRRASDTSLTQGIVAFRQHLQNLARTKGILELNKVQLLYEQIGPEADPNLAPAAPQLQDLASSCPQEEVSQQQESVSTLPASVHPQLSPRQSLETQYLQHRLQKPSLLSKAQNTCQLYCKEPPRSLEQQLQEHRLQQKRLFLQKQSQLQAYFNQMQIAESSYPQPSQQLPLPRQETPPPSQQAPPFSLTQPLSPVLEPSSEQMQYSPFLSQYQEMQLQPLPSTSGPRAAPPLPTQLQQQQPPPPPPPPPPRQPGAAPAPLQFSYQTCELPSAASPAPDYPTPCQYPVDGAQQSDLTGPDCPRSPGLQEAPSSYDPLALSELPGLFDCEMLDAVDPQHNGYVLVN
T6 sequence (Q15303 26-1308): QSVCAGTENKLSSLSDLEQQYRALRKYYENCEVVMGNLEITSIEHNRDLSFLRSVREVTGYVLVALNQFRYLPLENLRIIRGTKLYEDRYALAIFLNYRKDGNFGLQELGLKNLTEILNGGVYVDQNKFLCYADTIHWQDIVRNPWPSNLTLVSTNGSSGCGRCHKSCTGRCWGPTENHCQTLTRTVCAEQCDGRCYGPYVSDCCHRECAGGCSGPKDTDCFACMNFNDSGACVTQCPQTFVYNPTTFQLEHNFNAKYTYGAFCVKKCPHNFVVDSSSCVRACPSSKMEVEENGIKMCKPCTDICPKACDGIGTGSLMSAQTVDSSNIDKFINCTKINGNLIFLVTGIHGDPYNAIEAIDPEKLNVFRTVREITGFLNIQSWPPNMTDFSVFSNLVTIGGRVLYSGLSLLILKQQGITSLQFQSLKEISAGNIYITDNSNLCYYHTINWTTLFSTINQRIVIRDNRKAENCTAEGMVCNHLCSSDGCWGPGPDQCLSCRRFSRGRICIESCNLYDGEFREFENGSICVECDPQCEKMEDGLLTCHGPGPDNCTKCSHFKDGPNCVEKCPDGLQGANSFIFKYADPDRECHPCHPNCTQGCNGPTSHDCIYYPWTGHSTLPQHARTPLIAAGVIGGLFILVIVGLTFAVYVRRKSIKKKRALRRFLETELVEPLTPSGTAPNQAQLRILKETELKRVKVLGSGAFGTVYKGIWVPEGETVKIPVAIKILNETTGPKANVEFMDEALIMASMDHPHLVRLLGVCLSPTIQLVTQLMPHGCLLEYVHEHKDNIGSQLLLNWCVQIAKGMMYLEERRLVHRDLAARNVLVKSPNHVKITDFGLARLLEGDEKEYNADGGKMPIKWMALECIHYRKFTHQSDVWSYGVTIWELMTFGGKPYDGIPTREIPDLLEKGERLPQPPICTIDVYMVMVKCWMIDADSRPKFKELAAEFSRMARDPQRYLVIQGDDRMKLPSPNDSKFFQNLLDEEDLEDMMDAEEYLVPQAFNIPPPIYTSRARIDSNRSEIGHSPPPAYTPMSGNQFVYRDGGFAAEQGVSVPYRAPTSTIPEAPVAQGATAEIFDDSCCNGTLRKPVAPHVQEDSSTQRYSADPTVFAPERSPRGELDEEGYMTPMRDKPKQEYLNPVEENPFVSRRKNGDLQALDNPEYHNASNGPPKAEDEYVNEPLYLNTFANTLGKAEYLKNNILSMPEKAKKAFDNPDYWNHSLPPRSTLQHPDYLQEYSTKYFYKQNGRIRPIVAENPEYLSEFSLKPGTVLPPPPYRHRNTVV
T5 sequence (Q13153 whole entry): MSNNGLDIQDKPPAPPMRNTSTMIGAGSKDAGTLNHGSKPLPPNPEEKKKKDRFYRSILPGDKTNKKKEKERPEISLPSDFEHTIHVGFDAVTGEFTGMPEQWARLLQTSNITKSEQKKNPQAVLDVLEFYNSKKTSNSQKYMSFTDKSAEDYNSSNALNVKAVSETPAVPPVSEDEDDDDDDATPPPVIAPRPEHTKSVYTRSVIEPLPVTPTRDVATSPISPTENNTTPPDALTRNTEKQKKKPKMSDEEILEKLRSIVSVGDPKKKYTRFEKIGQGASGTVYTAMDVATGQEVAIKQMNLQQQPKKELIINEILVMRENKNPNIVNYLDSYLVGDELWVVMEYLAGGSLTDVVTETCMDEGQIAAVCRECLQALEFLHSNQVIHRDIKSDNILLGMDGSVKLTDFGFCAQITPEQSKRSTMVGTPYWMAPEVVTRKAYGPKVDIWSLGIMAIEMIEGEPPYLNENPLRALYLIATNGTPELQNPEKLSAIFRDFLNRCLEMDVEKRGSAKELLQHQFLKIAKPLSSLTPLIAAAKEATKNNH
T2 sequence (P07948 whole entry): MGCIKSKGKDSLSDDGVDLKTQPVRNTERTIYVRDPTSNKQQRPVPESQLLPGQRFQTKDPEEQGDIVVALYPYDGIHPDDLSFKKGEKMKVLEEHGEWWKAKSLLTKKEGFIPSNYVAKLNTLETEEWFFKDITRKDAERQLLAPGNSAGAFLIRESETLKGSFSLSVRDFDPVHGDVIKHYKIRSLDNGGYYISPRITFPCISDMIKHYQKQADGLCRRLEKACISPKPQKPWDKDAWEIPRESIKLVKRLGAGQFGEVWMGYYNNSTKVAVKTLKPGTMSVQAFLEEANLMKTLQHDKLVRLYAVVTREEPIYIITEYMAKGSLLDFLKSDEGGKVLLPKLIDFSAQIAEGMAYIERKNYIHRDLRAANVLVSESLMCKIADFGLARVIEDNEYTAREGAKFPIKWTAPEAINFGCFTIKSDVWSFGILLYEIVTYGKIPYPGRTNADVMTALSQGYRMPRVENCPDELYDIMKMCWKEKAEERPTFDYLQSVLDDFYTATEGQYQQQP

SMILES	inhibition at 1 µM [1] [%]	inhibition at 1 µM [2] [%]	inhibition at 1 µM [3] [%]	inhibition at 1 µM [4, 9] [%]	inhibition at 1 µM [5] [%]	inhibition at 1 µM [6] [%]	inhibition at 1 µM [7] [%]	inhibition at 1 µM [8, 10] [%]	inhibition at 1 µM ([4]; at 1 μM, read-out: inhibition of ABL2) [%]	inhibition at 1 µM ([8]; at 1 μM, read-out: inhibition of SIK2) [%]
COc1ccc(F)cc1C(=O)NCc1ccc(-c2nn([C@@H](C)C(F)(F)F)c(N)c2C(N)=O)cc1 [LOXO-305, pirtobrutinib]	< 50	< 50	70 to 89	< 50	< 50	50 to 69	50 to 69	< 50	–	–
C=CC(=O)N1CCC([C@@H]2CCNc3c(C(N)=O)c(-c4ccc(Oc5ccccc5)cc4)nn32)CC1 [Zanubrutinib, (7S)-2-(4-phenoxyphenyl)-7-(1-prop-2-enoylpiperidin-4-yl)-4,5,6,7-tetrahydropyrazolo[1,5-a]pyrimidine-3-carboxamide]	< 50	–	–	< 50	< 50	–	90 to 100	< 50	–	–
O=C(c1ccc(Oc2ccccc2)cc1Cl)c1c[nH]c2ncnc(N[C@@H]3CC[C@@H](CO)OC3)c12 [ARQ-531, (2-chloro-4-phenoxyphenyl) (4-(((3R,6S)-6-(hydroxymethyl)tetrahydro-2H-pyran-3-yl)amino)-7H-pyrrolo[2,3-d]pyrimidin-5-yl) methanone]	50 to 69	70 to 89	90 to 100	–	50 to 69	90 to 100	90 to 100	–	–	–
Cc1cccnc1[C@H]1CCC[C@@H](c2ncccc2C)N1CCN1CCN(C(=O)c2ccc(-c3cc4c(-c5cccc(NC(=O)c6ccccc6)c5C)ncnc4[nH]3)cc2)CC1 [Compound I-10, N-(3-(6-(4-(4-(2-((2R,6S)-2,6-bis(3-methylpyridin-2-yl)piperidin-1-yl)ethyl)piperazine-1-carbonyl)phenyl)-7H-pyrrolo[2,3-d]pyrimidin-4-yl)-2-methylphenyl)benzamide]	< 50	< 50	< 50	70 to 89	< 50	< 50	< 50	50 to 69	50 to 89	50 to 89
